Measured values: ChEMBL document CHEMBL5137059, “An Intelligent Strategy with All-Atom Molecular Dynamics Simulations for the Design of Lipopeptides against Multidrug-Resistant Pseudomonas aeruginosa” (2022)
In brackets after ≈: the same amount, converted by molar mass. Positions of bridges follow the written chain, without caps; N, C: chain ends. Non-standard residues stand in square brackets, D forms with d. Residues, ends and D or L forms follow the SMILES beside them. *: point of attachment. Benzoyl(4-Ph) = O=C(c1ccc(-c2ccccc2)cc1)*; Bip = N[C@@H](Cc1ccc(-c2ccccc2)cc1)C(=O)O; dBip = N[C@H](Cc1ccc(-c2ccccc2)cc1)C(=O)O; dGly(nOct) = CCCCCCCC[C@@H](N)C(=O)O; Gly(octyl) = CCCCCCCC[C@H](N)C(=O)O; Octanoyl = CCCCCCCC(=O)*; Dab = NCC[C@H](N)C(=O)O; Bn = c1ccc(C*)cc1

Assays:
Assay type in all cases: functional
Pseudomonas aeruginosa [1] = test: Antimicrobial activity against polymyxin resistant Pseudomonas aeruginosa FADDI-PA060 assessed as microbial growth inhibition measured at 18 to 20 hrs by broth microdilution assay; conditions: time 18-20 hrs
Pseudomonas aeruginosa [2] = test: Antimicrobial activity against polymyxin resistant Pseudomonas aeruginosa FADDI-PA070 assessed as microbial growth inhibition measured at 18 to 20 hrs by broth microdilution assay; conditions: time 18-20 hrs
Pseudomonas aeruginosa [3] = test: Antimicrobial activity against polymyxin resistant Pseudomonas aeruginosa FADDI-PA065 assessed as microbial growth inhibition measured after 20 hrs by CLSI-protocol based broth microdilution assay
Pseudomonas aeruginosa [4] = test: Antimicrobial activity against polymyxin resistant Pseudomonas aeruginosa FADDI-PA071 assessed as microbial growth inhibition measured after 20 hrs by CLSI-protocol based broth microdilution assay
Pseudomonas aeruginosa [5] = test: Antimicrobial activity against Pseudomonas aeruginosa PAO1R assessed as microbial growth inhibition measured after 20 hrs by CLSI-protocol based broth microdilution assay
Pseudomonas aeruginosa [6] = test: Antimicrobial activity against Pseudomonas aeruginosa PAO1 assessed as microbial growth inhibition measured after 20 hrs by CLSI-protocol based broth microdilution assay
Pseudomonas aeruginosa [7] = test: Antimicrobial activity against Pseudomonas aeruginosa PW7028 assessed as microbial growth inhibition measured after 20 hrs by CLSI-protocol based broth microdilution assay
Pseudomonas aeruginosa [8] = test: Disruption of membrane integrity in polymyxin resistant Pseudomonas aeruginosa FADDI-PA065 assessed as fold increase by measuring cellular fluorescence intensity at 8 mg/L incubated for 4 hrs by DiBAC and PI staining based flow cytometry analysis
Pseudomonas aeruginosa [9] = test: Disruption of membrane integrity in polymyxin resistant Pseudomonas aeruginosa FADDI-071 assessed as fold increase by measuring cellular fluorescence intensity at 8 mg/L incubated for 4 hrs by DiBAC and PI staining based flow cytometry analysis

**Q.** What does the source list for CCCCCCCC(=O)N[C@@H](CCN)C(=O)N[C@H](C(=O)N[C@@H](CCN)C(=O)N[C@H]1CCNC(=O)[C@H]([C@@H](C)O)NC(=O)[C@H](CCN)NC(=O)[C@H](CCN)NC(=O)[C@H](Cc2ccccc2)NC(=O)[C@@H](Cc2ccccc2)NC(=O)[C@H](CCN)NC1=O)[C@@H](C)O?
**A.** MIC (Pseudomonas aeruginosa [1]): > 32 µg/mL; MIC (Pseudomonas aeruginosa [2]): > 32 µg/mL

**Q.** How did the MIC (Pseudomonas aeruginosa [1]) turn out when CCCCCCCC[C@H]1NC(=O)[C@H](CCN)NC(=O)[C@@H](NC(=O)[C@H](CCN)NC(=O)[C@@H](NC(=O)[C@H](CCN)NC(=O)c2ccccc2)[C@@H](C)O)CCNC(=O)[C@H]([C@@H](C)O)NC(=O)[C@H](CCN)NC(=O)[C@H](CCN)NC(=O)[C@H](CC(C)C)NC1=O was run?
**A.** 32 µg/mL (≈ 26.9 µM)

**Q.** And the MIC (Pseudomonas aeruginosa [2])?
**A.** 32 µg/mL (≈ 26.9 µM)

**Q.** CCCCCCCC(=O)N[C@@H](CCN)C(=O)N[C@H](C(=O)N[C@@H](CCN)C(=O)N[C@H]1CCNC(=O)[C@H]([C@@H](C)O)NC(=O)[C@H](CCN)NC(=O)[C@H](CCN)NC(=O)[C@H](CC(C)C)NC(=O)[C@@H](Cc2ccc(-c3ccccc3)cc2)NC(=O)[C@H](CCN)NC1=O)[C@@H](C)O (Octanoyl-[Dab]T[Dab][Dab][Dab][dBip]L[Dab][Dab]T; lactam 4-C) was tested. Which MIC (Pseudomonas aeruginosa [1]) did it give?
**A.** 8 µg/mL (≈ 6.32 µM)

**Q.** What about the MIC (Pseudomonas aeruginosa [2]) of the same compound?
**A.** 4 µg/mL (≈ 3.16 µM)

**Q.** What does the source list for CCCCCCCC(=O)N[C@@H](CCN)C(=O)N[C@H](C(=O)N[C@@H](CCN)C(=O)N[C@H]1CCNC(=O)[C@H]([C@@H](C)O)NC(=O)[C@H](CCN)NC(=O)[C@H](CCN)NC(=O)[C@H](CSCc2ccccc2)NC(=O)[C@@H](Cc2ccccc2)NC(=O)[C@H](CCN)NC1=O)[C@@H](C)O (Octanoyl-[Dab]T[Dab][Dab][Dab][dF]C(Bn)[Dab][Dab]T; lactam 4-C)?
**A.** MIC (Pseudomonas aeruginosa [1]): 32 µg/mL (≈ 25.2 µM); MIC (Pseudomonas aeruginosa [2]): > 32 µg/mL

**Q.** CCCCCCCC(=O)N[C@@H](CCN)C(=O)N[C@H](C(=O)N[C@@H](CCN)C(=O)N[C@H]1CCNC(=O)[C@H]([C@@H](C)O)NC(=O)[C@H](CCN)NC(=O)[C@H](CCN)NC(=O)[C@H](Cc2ccc(-c3ccccc3)cc2)NC(=O)[C@@H](Cc2ccccc2)NC(=O)[C@H](CCN)NC1=O)[C@@H](C)O (Octanoyl-[Dab]T[Dab][Dab][Dab][dF][Bip][Dab][Dab]T; lactam 4-C) was tested. Which MIC (Pseudomonas aeruginosa [1]) did it give?
**A.** 8 µg/mL (≈ 6.16 µM)

**Q.** And the MIC (Pseudomonas aeruginosa [2])?
**A.** 4 µg/mL (≈ 3.08 µM)

**Q.** Which MIC (Pseudomonas aeruginosa [3]) does the source give for CCCCCCCC[C@@H]1NC(=O)[C@@H](Cc2ccccc2)NC(=O)[C@H](CCN)NC(=O)[C@@H](NC(=O)[C@H](CCN)NC(=O)[C@@H](NC(=O)[C@H](CCN)NC(=O)CCCCCCC)[C@@H](C)O)CCNC(=O)[C@H]([C@@H](C)O)NC(=O)[C@H](CCN)NC(=O)[C@H](CCN)NC1=O (Octanoyl-[Dab]T[Dab][Dab][Dab][dF][Gly(octyl)][Dab][Dab]T; lactam 4-C) here?
**A.** 1 µg/mL (≈ 0.803 µM)

**Q.** What about the MIC (Pseudomonas aeruginosa [4]) of the same compound?
**A.** 4 µg/mL (≈ 3.21 µM)

**Q.** And the MIC (Pseudomonas aeruginosa [5])?
**A.** 8 µg/mL (≈ 6.42 µM)

**Q.** And the MIC (Pseudomonas aeruginosa [6])?
**A.** 4 µg/mL (≈ 3.21 µM)

**Q.** What about the MIC (Pseudomonas aeruginosa [7]) of the same compound?
**A.** 2 µg/mL (≈ 1.61 µM)

**Q.** What about the MIC (Pseudomonas aeruginosa [1]) of the same compound?
**A.** 2 µg/mL (≈ 1.61 µM)

**Q.** What about the MIC (Pseudomonas aeruginosa [2]) of the same compound?
**A.** 4 µg/mL (≈ 3.21 µM)

**Q.** And the “fold change (FC)” value (Pseudomonas aeruginosa [8])?
**A.** 19.6

**Q.** And the “fold change (FC)” value (Pseudomonas aeruginosa [9])?
**A.** 19.6

**Q.** What does the source list for CCCCCCCC[C@H]1NC(=O)[C@H](CCN)NC(=O)[C@@H](NC(=O)[C@H](CCN)NC(=O)[C@@H](NC(=O)[C@H](CCN)NC(=O)CCCCCCC)[C@@H](C)O)CCNC(=O)[C@H]([C@@H](C)O)NC(=O)[C@H](CCN)NC(=O)[C@H](CCN)NC(=O)[C@H](CC(C)C)NC1=O (Octanoyl-[Dab]T[Dab][Dab][Dab][dGly(nOct)]L[Dab][Dab]T; lactam 4-C)?
**A.** MIC (Pseudomonas aeruginosa [3]): 2 µg/mL (≈ 1.65 µM); MIC (Pseudomonas aeruginosa [4]): 4 µg/mL (≈ 3.3 µM); MIC (Pseudomonas aeruginosa [5]): 8 µg/mL (≈ 6.6 µM); MIC (Pseudomonas aeruginosa [6]): 4 µg/mL (≈ 3.3 µM); MIC (Pseudomonas aeruginosa [7]): 4 µg/mL (≈ 3.3 µM); MIC (Pseudomonas aeruginosa [1]): 2 µg/mL (≈ 1.65 µM); MIC (Pseudomonas aeruginosa [2]): 2 µg/mL (≈ 1.65 µM); fold change (FC) (Pseudomonas aeruginosa [8]): 18.8; fold change (FC) (Pseudomonas aeruginosa [9]): 18.8

**Q.** How did the MIC (Pseudomonas aeruginosa [1]) turn out when C[C@@H](O)[C@@H]1NC(=O)[C@H](CCN)NC(=O)[C@H](CCN)NC(=O)[C@H](Cc2ccc(-c3ccccc3)cc2)NC(=O)[C@@H](Cc2ccccc2)NC(=O)[C@H](CCN)NC(=O)[C@@H](NC(=O)[C@H](CCN)NC(=O)[C@@H](NC(=O)[C@H](CCN)NC(=O)c2ccc(-c3ccccc3)cc2)[C@@H](C)O)CCNC1=O ({Benzoyl(4-Ph)}-[Dab]T[Dab][Dab][Dab][dF][Bip][Dab][Dab]T; lactam 4-C) was run?
**A.** 8 µg/mL (≈ 5.91 µM)

**Q.** And the MIC (Pseudomonas aeruginosa [2])?
**A.** 16 µg/mL (≈ 11.8 µM)

**Q.** What does the source list for COLISTIN?
**A.** MIC (Pseudomonas aeruginosa [3]): > 128 µg/mL; MIC (Pseudomonas aeruginosa [4]): > 128 µg/mL; MIC (Pseudomonas aeruginosa [5]): > 32 µg/mL; MIC (Pseudomonas aeruginosa [6]): 2 µg/mL; MIC (Pseudomonas aeruginosa [7]): 1 µg/mL; MIC (Pseudomonas aeruginosa [1]): > 128 µg/mL; MIC (Pseudomonas aeruginosa [2]): > 128 µg/mL; fold change (FC) (Pseudomonas aeruginosa [8]): 2.33; fold change (FC) (Pseudomonas aeruginosa [9]): 2.33
